Read-outs that look alike come from different tables or passages of the source.

Test [1] has as its system A549 non-small cell lung cancer cells. The note with it: A549, MTT, 96 h exposure; cited from earlier work.
The test system of test [2] is SW480 colon carcinoma cells. Particulars: SW480, MTT, 96 h exposure; cited from earlier work.
Test [3] concerns CH1/PA-1 ovarian teratocarcinoma cells. Particulars: CH1/PA-1, MTT, 96 h exposure; cited from earlier work.
In test [4] the test system is A549 non-small cell lung cancer cells. In words: MTT assay (cytotoxicity). The class given is cell-based, human. Particulars: 96 h exposure. As to the method:
(§1) CH1/PA-1 ovarian teratocarcinoma cells (provided by L. R. Kelland, CRC Centre for Cancer Therapeutics, Institute of Cancer Research, Sutton, UK; confirmed by STR profiling as PA-1 ovarian teratocarcinoma cells at Multiplexion, Heidelberg, Germany), SW480 colon carcinoma and A549 non-small cell lung cancer cells (both obtained from the American Type Culture Collection, Manassas, VA, USA) were grown as adherent cultures in 75 cm² culture flasks (CytoOne, Starlab, Hamburg, Germany) by using minimal essential medium (MEM) supplemented with 1 mM sodium pyruvate, 4 mM L-glutamine, 1% (v/v) nonessential amino acids from 100-fold stock (all purchased from Sigma-Aldrich) and 10% heat-inactivated fetal bovine serum (BioWest, Nuaillé, France). Cells were maintained under standard culture conditions with 5% CO2 at 37 °C in a humidified atmosphere.
(§2) The 3-(4,5-dimethylthiazol-2-yl)-2,5-diphenyl-2H-tetrazolium bromide (MTT, Acros Organics, Geel, Belgium) assay was used to detect the cytotoxicity of the compounds after 24 h and 96 h incubation. In brief, cells were harvested from culture flasks and the following cell numbers (each in 100 µL) were seeded into 96-well culture plates (CytoOne, tissue culture treated, Starlab, Hamburg, Germany) for 24 h incubation: 1 × 10^4 (CH1/PA-1), 1 × 10^4 (SW480) and 1.5 × 10^4 (A549) cells per well; and for 96 h incubation: 1 × 10^3 (CH1/PA-1), 2 × 10^3 (SW480) and 3 × 10^3 (A549) cells per well. After 24 h, cells resuming their exponential growth rate were treated with test compounds at nine concentrations obtained by serial two-fold dilution. Stock solutions were prepared in DMSO (20 mM or 40 mM) and diluted in supplemented MEM. An amount of 100 µL of each concentration was added to the plates in triplicates and cells were exposed for 24 or 96 h. Afterward, the medium was replaced with 100 µL of MTT solution (5 mg/mL) in phosphate-buffered saline (PBS, Sigma-Aldrich), diluted 1:7 in RPMI 1640 medium (supplemented with 4 mM L-glutamine and 10% heat-inactivated FBS). Upon cell-viability-dependent conversion of the yellow, water-soluble tetrazolium salt into purple formazan products for 4 h, the crystals were dissolved in 150 µL DMSO. The absorbance of the resulting solutions, which is directly proportional to the number of viable cells, was measured at 550 nm (and at 690 nm as a reference) with a microplate reader (ELx808, BioTek, Winoosky, VT, USA) and Gen5TM 3.08 software (BioTek). Blank-corrected optical densities were subjected to graphical evaluation and interpolation of IC50 values. At least three biologically and technically independent experiments were performed.
On the technique in general: Formazan colour is commonly taken as a measure of viable cells.

In test [5] the test system is CH1/PA-1 ovarian teratocarcinoma cells. In words: MTT assay (cytotoxicity). The class given is cell-based, human. The note with it: CH1/PA-1, MTT, 96 h exposure. How it is done:
as §1, §2

For test [6], the system named is SW480 colon carcinoma cells. Nature of the test: MTT assay (cytotoxicity). The class given is cell-based, human. Particulars: 96 h exposure. As to the method: as §1, §2

One may read the IC50 as the midpoint of a concentration-inhibition curve. In the case of `N.N.O=C([O-])C1(C(=O)[O-])CCC1.[Pt+2]` [Carboplatin], the results for the IC50 in test [1], in test [2] and in test [3] were 38 ± 3 µM, 42 ± 10 µM and 0.79 ± 0.11 µM, respectively.

`N.N.[Cl][Pt][Cl]` [Cisplatin, reference compound]: the IC50 in test [4] is 3.8 ± 1 µM; in test [5], 0.073 ± 0.001 µM; in test [6] it was 2.3 ± 0.2 µM.

`O=C1[O][Pt]2([NH][C@@H]3CCCC[C@H]3[NH]2)[O]C1=O` [Oxaliplatin]: the results for the IC50 in test [1], in test [2] and in test [3] were 0.98 ± 0.21 µM, 0.29 ± 0.05 µM and 0.18 ± 0.01 µM, respectively.

In the case of `[Cl][Ru][Cl].[Cl][Ru][Cl].c1ccccc1.c1ccccc1` [[Ru(benzene)Cl2]2], the IC50 in test [1], in test [2] and in test [3] was greater than 100 µM throughout.

As to `[Cl][Ru-]1[Cl+][Ru-]([Cl])[Cl+]1.c1ccc2c(c1)CCC2.c1ccc2c(c1)CCC2` [[Ru(indane)Cl2]2], the half-maximal inhibitory concentration (IC50) in test [1] was 257 ± 66 µM; in test [2], 166 ± 35 µM; in test [3], 51 ± 13 µM.

As for `Cc1ccccc1.Cc1ccccc1.[Cl][Ru-]1[Cl+][Ru-]([Cl])[Cl+]1` [[Ru(toluene)Cl2]2], the half-maximal inhibitory concentration (IC50) in test [1], in test [2] and in test [3] was greater than 100 µM throughout.

Values taken from PMC9699003, “Arene Variation of Highly Cytotoxic Tridentate Naphthoquinone-Based Ruthenium(II) Complexes and In-Depth In Vitro Studies” (Pharmaceutics, 2022).
